Measurements: PMC5329948, “Caspase vinyl sulfone small molecule inhibitors prevent axonal degeneration in human neurons and reverse cognitive impairment in Caspase-6-overexpressing mice” (Molecular Neurodegeneration, 2017)

Tested on: primary human CNS neurons
Assay: Cellular toxicity in primary human neurons (phase contrast, MTT)
Format: cell-based
Conditions: for toxicity in human neurons: concentrations up to 100 μM; for neuronal morphology / mitochondrial reductive potential (MTT): primary human neurons; for neuronal morphology: 100 μM, 24 h; for mitochondrial reductive potential (MTT): 24 or 48 h
Experimental: HCT116: Human colon carcinoma (HCT116) cells (ATCC, Manassas, VA, USA) were cultured in McCoy’s 5A modified media (Thermo Fisher Scientific, Waltham, MA, USA) supplemented with 10% fetal bovine serum (Thermo Fisher Scientific, Waltham, MA, USA) and transfected with 1 μg of pCep4βCasp6p20p10 mixed with 8 μg of polyethyleneimine (Polysciences Inc., Warrington, PA, USA). Protein expression was allowed for 24 h before treating with vehicle (PBS), 100 μM NWL-117, or 100 μM NWL-154 for 2 h. For NWL inhibitor kinetic experiments, 100 μM of NWL-117 or NWL-154 was added at 120, 90, 60, 30, 15, or 0 min before harvest. […] For recovery time course experiments, after the initial treatment with 100 μM of NWL-117 or −154 for 2 h, the media was replaced with fresh media for 120, 90, 60, 30, 15, or 0 min before harvest. Primary Human CNS neurons: Cortical tissues were obtained from the Birth Defects Research Laboratory (BDRL, University of Washington, Seattle, USA) in accordance with NIH ethical guidelines approved by McGill University’s institutional review board and primary neurons cultured as previously described. Primary human neurons were seeded on poly-L-lysine-coated (5 μg/mL) 6-well plates or glass coverslips coated with poly-L-lysine and laminin (5 μg/mL) (Sigma-Aldrich, Oakville, ON, CA) at a density of 3x10^6 cells/mL. Primary human neurons were pre-treated with 0.1 μM epoxomicin (Enzo LifeSciences, Farmingdale, NY, USA) and 100 μM NWL-117, 100 μM NWL-154, or vehicle (PBS) for 2 h, and serum-deprived for 2 h in the presence of epoxomicin and vehicle (PBS), 100 μM NWL-117, or 100 μM NWL-154 before harvesting or measuring caspase activity with FLICA, as described below.
Immunofluorescence on human neuron cultures: Primary human neurons were pre-treated 2 h and serum-deprived in the presence of 100 μM NWL-117, 100 μM NWL-154, or 5 μM Z-VEID-fmk (Biomol, Plymouth meeting, PA, USA) for 24 h. Following treatment, human neurons were washed once with warm PBS, fixed for 20 min at room temperature with 4% paraformaldehyde (Sigma, Oakville, ON, CA)/4% sucrose (BioRad, Mississauga, ON, CA) for TubΔCasp6 or 2% formaldehyde (Thermo Fisher Scientific, Waltham, MA, USA)/0.2% glutaraldehyde (Sigma, Oakville, ON, CA) for pBudEGFP or pBudEGFP/APP^WT-transfected neurons, incubated in permeabilization buffer (0.1% Triton X-100, 0.1 sodium citrate) for 1 min on ice, washed with PBS, blocked for 20 min at room temperature with 10% goat serum (Sigma, Oakville, ON, CA), and incubated with primary antibodies diluted in 10% goat serum in PBS overnight at 4 °C in a humid chamber. The glass coverslips were washed with PBS, and incubated with goat anti-rabbit secondary antibody coupled to Alexa 488 (Molecular Probes, Eugene, OR, USA) or Cy3 (GE Healthcare Life Sciences, Baie D’Urfe, QC, CA) and Hoechst 33342 (ImmunoChemistry, Bloomington, MN, USA) at 1 μg/mL for 2 h at room temperature. The coverslips were washed with PBS and rinsed in Milli-Q water before mounting in fluoromount (Dako, Burlington, ON, CA). Images were acquired by fluorescence microscopy and quantified using the ImageJ software (NIH, Bethesda, MD, USA) for TubΔCasp6 and manually counted for transfected EGFP(+)-neurons. Time lapse-imaging by live fluorescence microscopy: Primary human neurons were transfected with gold beads coated with pBudEGFP or pBudEGFP/APP^WT using a Helios Gene gun (BioRad, Mississauga, ON, CA). Briefly, cells were pre-treated with 100 μM NWL inhibitors or 5 μM Z-VEID-fmk for 2 h. The media was removed and the neurons were shot at 100 psi. The media was quickly replaced with the inhibitors present. The plasmid was expressed for 16 h before setting up the fluorescence microscope (Nikon Eclipse Ti) to acquire 20 images per condition every hour for 72 h at 37 °C with 5% CO2. The images were analyzed by counting the total number of neurons (50–100 neurons per condition per independent experiment), and the number of beaded, swollen soma, and healthy neurons. […]

Structure (SMILES) | toxicity in human neurons | neuronal morphology | mitochondrial reductive potential (MTT)
CCC(C)[C@H](NC(=O)[C@H](CCC(=O)O)NC(=O)[C@@H](NC(=O)OCc1ccccc1)C(C)C)C(=O)N[C@H](/C=C/S(C)(=O)=O)CC(=O)O (stereo partly drawn) [NWL-117] | neither NWL-117 nor −154 is toxic | did not change neuronal morphology | comparable to vehicle-treated neurons
CCC(C)[C@H](NC(=O)[C@H](CCC(=O)O)NC(=O)[C@@H](NC(=O)OCc1ccccc1)C(C)C)C(=O)N[C@H](/C=C(\Cl)S(C)(=O)=O)CC(=O)O (stereo partly drawn) [NWL-154] | neither NWL-117 nor −154 is toxic | did not change neuronal morphology | comparable to vehicle-treated neurons
